Entries after “also recorded” stand apart in the source; their conditions may differ. Like-named read-outs stand apart in the source and are kept apart here.
Key:
[1] = biological target: T1, human dopamine transporter (hDAT) (Homo sapiens, UniProt Q01959); assay: Radioligand binding to cloned hDAT, [3H]WIN35428, HEK-293 cell membranes
T1 construct: expressed in transfected cells; host or cells: HEK-293, stably transfected
Description: (§1) HEK-293 cells expressing the recombinant hSERT or hDAT were incubated with Dulbecco's modified Eagles medium (MEM) supplemented with 0.1 mM nonessential amino acid solution for MEM, 5% v/v fetal bovine serum and 1 U/mL penicillin/streptomycin solution. Cells expressing the hNET transporter were incubated with Dulbecco's modified Eagles medium supplemented with 10% v/v fetal bovine serum and 100 U/mL penicillin/streptomycin solution and 2 mM L-glutamine. The cells were grown until 70-80% confluent on 175 cm^2 flasks in a humidified 10% CO2/90% air environment at 37° C., with the selecting antibiotic Geneticin sulfate at 250 μg/mL. The cells were incubated in 10% CO2, 90% air at 37° C. and 100% humidity.
(§2) Cell membranes containing hSERT, hNET, or hDAT were prepared from the cell lines to assay ligand binding for each of the transporters. […] The washed cells were incubated for 5 minutes at 37° C. in 10 mL solution 1 containing 100 mM ethylene glycol-bis N,N,N′,N′-tetraacetic acid (EGTA). The cells were then scraped from the flask surface with a rubber spatula, placed into a centrifuge tube, and collected by centrifugation at 1000×g for 5 minutes at 4° C. The resulting supernatant was discarded, and the cell pellet was resuspended in 0.5 to1.0 mL of the appropriate binding buffer (described below). The resuspended cell pellet was homogenized using a Polytron for 10 seconds at setting 6. The resulting homogenate was centrifuged at about 36,000×g for 10 minutes at 4° C. The supernatant was discarded, and the pellet was resuspended in the same volume of the appropriate binding buffer and centrifuged again. The supernatant was discarded, and the final pellet containing cell membranes was resuspended in the appropriate binding buffer and stored at −80° C. until use.
To assess binding to the cloned hDAT, cells expressing hDAT were homogenized in 50 mM Tris-HCl with 120 mM NaCl (pH 7.4). The binding reaction contained 15 μg cell membrane protein, 1 nM [^3H]WIN35428 (WIN35428, [N-methyl-^3H], specific activity 85.9 Ci/mmol; PerkinElmer, Boston, Mass.), and varying concentrations of either unlabeled WIN35428 or the test compound. A reaction to determine non-specific binding contained 15 μg cell membrane protein, 1 nM [^3H]WIN35428, and 10 μM final concentration of unlabeled WIN35428. The reactions were incubated at 22° C. for 1 hour. Following incubation, the reactions were terminated by rapid filtration through separate GF/B filter strips pretreated with 0.2% polyethylenimine in a 48-well Brandel cell harvester. The cell membrane-containing filter strips were then rinsed five times with ice-cold 0.9% NaCl. After rinsing, individual filters were cut from the strip and placed in a scintillation vial containing 6.5 mL of Redi-Safe (Beckman-Coulter, Fullerton, Calif.).
(§3) The program was modified to calculate the Hill coefficient (nH). Data are presented as geometric mean±S.E.M. of at least three independent experiments. One-component models and two-component models were compared using the root mean square error of each fit and the F test.

[2] = test system: Male Sprague-Dawley rats; assay: Forced swim test in rats; assay type: in vivo, rat; details: for Antidepressant activity in forced swim test compared with imipramine (15 mg/kg IP): FIG. 12A
Description: When rats are placed in a cylinder of water from which they cannot escape, they will remain immobile in the water for the majority of the test.
Water was changed between trials, and the procedure involved a pretest and a 5-minute test separated by 24 hours. During the pretest, rats (adapted to the experimental room for no less than one hour) were placed in the cylinder for 15 minutes. Following this initial exposure, the rats were dried with towels and transferred to a “drying cage” situated under a warming lamp. […] The following day, rats were transferred to the experimental room and acclimated for at least one hour.
The rat was considered immobile when floating motionless or making only those movements necessary to keep its head above the surface of the water. Scores for each behavior (swimming or immobility) were expressed as total counts per 5-minute session. Statistical analysis was performed using ANOVA followed by the Tukey test for post-hoc comparisons.

[3] = biological target: T2, human serotonin transporter (hSERT) (Homo sapiens, UniProt P31645); assay: Radioligand binding to cloned hSERT, [3H]citalopram, HEK-293 cell membranes; details: for Kd: Geometric Mean ± SEM, HCl salts, read-out: Equilibrium Dissociation Constant (KD) for Transporter Binding, hSERT (S); for Binding at hSERT compared to PRC200-SS: in words
T2 construct: expressed in transfected cells; host or cells: HEK-293, stably transfected
Description: as §1, §2
Radioligand binding assays for the indicated transporters were performed as follows. To assess binding to the cloned hSERT, cells expressing hSERT were homogenized in 50 mM Tris-HCl with 120 mM NaCl and 5 mM KCl (pH 7.4). The binding reaction consisted of 10 μg cell membrane protein, […] [^3H]citalopram (citalopram, [N-methyl-^3H], specific activity 79.0 Ci/mmol; PerkinElmer, Boston, Mass.), and varying concentrations of either unlabeled citalopram or the test compound. A reaction to determine non-specific binding consisted of 10 μg cell membrane protein, 0.5 nM [^3H]citalopram, and 1 μM final concentration of unlabeled citalopram. The reactions were incubated at 22° C. for 60 minutes. Following incubation, the reactions were terminated by rapid filtration through separate GF/B filter strips pretreated with 0.2% polyethylenimine in a 48-well Brandel cell harvester. The cell membrane-containing filter strips were then rinsed five times with ice-cold 0.9% NaCl. After rinsing, individual filters were cut from the strip and placed in a scintillation vial containing 6.5 mL of Redi-Safe (Beckman-Coulter, Fullerton, Calif.).
as §3

[4] = biological target: T3, human norepinephrine transporter (hNET) (Homo sapiens, UniProt P23975); assay: Radioligand binding to cloned hNET, [3H]nisoxetine, HEK-293 cell membranes; details: Geometric Mean ± SEM; HCl salts; read-out: Equilibrium Dissociation Constant (KD) for Transporter Binding, hNET (N)
T3 construct: expressed in transfected cells; host or cells: HEK-293, stably transfected
Description: as §1, §2
To assess binding to the cloned hNET, cells expressing hNET were homogenized in 50 mM Tris-HCl with 300 mM NaCl and 5 mM KCl (pH 7.4). The binding reaction consisted of 5 μg cell membrane protein, 0.5 nM [^3H]nisoxetine (nisoxetine HCl, [N-methyl-^3H], specific activity 82.0 Ci/mmol; Amersham, Arlington Hts., Ill.), and varying concentrations of either unlabeled nisoxetine or the test compound. A reaction to determine non-specific binding consisted of 5 μg cell membrane protein, 0.5 nM [^3H]nisoxetine, and 1 μM final concentration of unlabeled nisoxetine. The reactions were incubated at 22° C. for 60 minutes. Following incubation, the reactions were terminated by rapid filtration through separate GF/B filter strips pretreated with 0.2% polyethylenimine in a 48-well Brandel cell harvester. The cell membrane-containing filter strips were then rinsed five times with ice-cold 0.9% NaCl. After rinsing, individual filters were cut from the strip and placed in a scintillation vial containing 6.5 mL of Redi-Safe (Beckman-Coulter, Fullerton, Calif.).
as §3

[5] = test system: hSERT, hNET, hDAT; assay: Human transporter binding: rank order and range of potency over the three transporters; details: for Potency (rank-order of potency of binding; S = hSERT, N = hNET, D = hDAT): from KD values; for Potency Range (difference between most potent and least potent binding): ratio of KD over hSERT, hNET, hDAT
Excerpt: as §3

[6] = biological target: T4, CYP2D6 (Homo sapiens, UniProt P10635); assay: CYP2D6 inhibition, CYP2D6/AMMC kit (BD Biosciences), fluorescent substrate; assay type: in vitro ADME
T4 construct: purchased BD Biosciences 459200
Excerpt: This kit includes the use of a fluorescent P450 substrate (AMMC or 3-[2-(N,N-diethyl-N-methylamino)ethyl]-7-methoxy-4-methylcoumarin) and recombinant human P450.

[7] = test system: rat 5-HT, NE and DA transport, synaptosomal preparations; assay: Rat brain synaptosomal transport: rank order of potency; assay type: biochemical
Description: The dissected tissues were separately homogenized in 20 volumes (cortical) or 40 volumes (striatal) of ice-cold, oxygenated HEPES buffer 0.32 M sucrose containing 11 mM glucose (pH 7.4) in a glass Potter-Elvehjem homogenizer with Teflon® pestle (8 strokes, 900 rpm). The homogenates were centrifuged at 1,000×g for 10 minutes. The resulting supernatant was decanted and further centrifuged at 20,000×g for 20 minutes at 4° C. […] The synaptosomal protein concentration was determined by using the BCA assay (Pierce Biotechnology Inc, Rockford, Ill.), according to the manufacturer's instructions. Synaptosomal protein (1.0-2.5 mg) was suspended in 1 mL oxygenated incubation buffer as defined above. Test amine compound was pre-incubated with the synaptosomal preparation for 30 minutes at 37° C. in a shaking water bath (80 oscillations/minute).

[8] = biological target: hERG (Homo sapiens, UniProt Q12809); assay: hERG assay: block of rubidium ion (Rb+) efflux from cells expressing hERG
Description: Human “ether-a-go-go” (hERG) is an ion channel. Blockade of this channel can be predictive of causing cardiac arrhythmias in humans. hERG assays were performed to measure the ability of a compound to block rubidium ion (Rb^+) efflux from cells expressing hERG. Cells were pre-loaded with Rb^+, incubated with test compound, and then exposed to a buffer that opens the channel and allows the efflux of ions. Compounds as powder were dissolved in 100% DMSO to prepare 100 mM stock solutions. […] The stocks were stored at 23° C.
The range of doses for the test compounds was 30 nM through 100,000 nM.

T3 sequence (P23975 whole entry): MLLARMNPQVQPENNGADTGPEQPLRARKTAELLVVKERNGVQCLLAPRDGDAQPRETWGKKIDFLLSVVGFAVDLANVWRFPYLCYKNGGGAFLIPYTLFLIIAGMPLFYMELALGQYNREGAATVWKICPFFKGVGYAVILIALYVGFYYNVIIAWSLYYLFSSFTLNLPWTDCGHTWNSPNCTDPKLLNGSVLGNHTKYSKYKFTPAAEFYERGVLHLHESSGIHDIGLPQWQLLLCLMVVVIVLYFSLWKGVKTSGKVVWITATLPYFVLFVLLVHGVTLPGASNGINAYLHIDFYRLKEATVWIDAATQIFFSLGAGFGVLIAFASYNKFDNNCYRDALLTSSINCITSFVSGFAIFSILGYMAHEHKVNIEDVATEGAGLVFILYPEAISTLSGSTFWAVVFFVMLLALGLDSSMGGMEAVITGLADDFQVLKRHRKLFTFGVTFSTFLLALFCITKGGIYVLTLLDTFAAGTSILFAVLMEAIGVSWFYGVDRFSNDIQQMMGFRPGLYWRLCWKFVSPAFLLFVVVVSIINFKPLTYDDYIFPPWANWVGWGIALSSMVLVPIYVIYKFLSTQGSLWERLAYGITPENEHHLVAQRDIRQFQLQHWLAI
T2 sequence (P31645 whole entry): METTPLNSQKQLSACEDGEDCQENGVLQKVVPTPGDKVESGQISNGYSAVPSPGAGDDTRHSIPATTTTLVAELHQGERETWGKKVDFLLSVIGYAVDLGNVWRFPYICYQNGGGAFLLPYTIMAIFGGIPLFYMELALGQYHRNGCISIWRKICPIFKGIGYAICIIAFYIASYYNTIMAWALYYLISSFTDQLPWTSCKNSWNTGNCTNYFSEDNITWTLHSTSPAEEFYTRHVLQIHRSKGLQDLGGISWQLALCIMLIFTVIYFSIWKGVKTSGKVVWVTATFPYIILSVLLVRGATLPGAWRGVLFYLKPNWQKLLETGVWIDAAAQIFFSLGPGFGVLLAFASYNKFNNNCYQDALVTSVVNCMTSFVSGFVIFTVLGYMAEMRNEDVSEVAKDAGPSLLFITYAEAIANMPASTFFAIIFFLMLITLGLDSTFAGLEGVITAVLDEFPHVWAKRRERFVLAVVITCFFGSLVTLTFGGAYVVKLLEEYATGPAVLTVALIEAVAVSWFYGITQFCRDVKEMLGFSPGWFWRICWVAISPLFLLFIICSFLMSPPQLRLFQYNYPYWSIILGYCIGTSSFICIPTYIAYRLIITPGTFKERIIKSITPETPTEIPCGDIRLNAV
T1 sequence (Q01959 whole entry): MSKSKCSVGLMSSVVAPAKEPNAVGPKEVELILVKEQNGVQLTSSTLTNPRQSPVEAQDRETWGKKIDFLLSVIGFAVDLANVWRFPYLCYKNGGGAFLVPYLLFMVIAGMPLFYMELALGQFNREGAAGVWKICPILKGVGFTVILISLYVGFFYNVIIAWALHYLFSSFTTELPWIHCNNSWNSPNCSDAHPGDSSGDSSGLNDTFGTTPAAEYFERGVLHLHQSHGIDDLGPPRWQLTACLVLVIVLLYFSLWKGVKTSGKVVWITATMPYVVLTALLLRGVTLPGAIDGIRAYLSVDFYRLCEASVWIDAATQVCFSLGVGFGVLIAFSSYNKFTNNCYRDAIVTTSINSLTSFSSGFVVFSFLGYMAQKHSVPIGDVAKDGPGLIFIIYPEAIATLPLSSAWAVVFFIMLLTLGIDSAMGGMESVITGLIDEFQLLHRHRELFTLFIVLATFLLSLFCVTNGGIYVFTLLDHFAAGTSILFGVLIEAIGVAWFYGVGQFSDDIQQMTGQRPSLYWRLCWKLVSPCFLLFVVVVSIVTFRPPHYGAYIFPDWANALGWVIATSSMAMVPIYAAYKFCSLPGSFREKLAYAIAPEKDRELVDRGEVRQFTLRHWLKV
T4 sequence (P10635 whole entry): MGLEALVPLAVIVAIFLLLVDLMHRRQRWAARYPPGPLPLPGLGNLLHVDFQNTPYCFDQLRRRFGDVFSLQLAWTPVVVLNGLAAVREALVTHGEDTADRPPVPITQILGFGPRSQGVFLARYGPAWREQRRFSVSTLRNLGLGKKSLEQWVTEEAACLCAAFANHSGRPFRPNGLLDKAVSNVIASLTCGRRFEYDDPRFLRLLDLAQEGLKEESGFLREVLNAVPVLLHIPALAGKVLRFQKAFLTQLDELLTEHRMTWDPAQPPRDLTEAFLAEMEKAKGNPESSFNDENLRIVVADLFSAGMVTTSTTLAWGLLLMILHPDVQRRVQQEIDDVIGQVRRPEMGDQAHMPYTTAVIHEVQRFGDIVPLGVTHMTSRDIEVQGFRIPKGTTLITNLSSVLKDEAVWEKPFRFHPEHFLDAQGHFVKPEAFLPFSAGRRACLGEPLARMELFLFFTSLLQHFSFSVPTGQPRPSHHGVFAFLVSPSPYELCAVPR
Chain of hERG (Q12809 whole entry): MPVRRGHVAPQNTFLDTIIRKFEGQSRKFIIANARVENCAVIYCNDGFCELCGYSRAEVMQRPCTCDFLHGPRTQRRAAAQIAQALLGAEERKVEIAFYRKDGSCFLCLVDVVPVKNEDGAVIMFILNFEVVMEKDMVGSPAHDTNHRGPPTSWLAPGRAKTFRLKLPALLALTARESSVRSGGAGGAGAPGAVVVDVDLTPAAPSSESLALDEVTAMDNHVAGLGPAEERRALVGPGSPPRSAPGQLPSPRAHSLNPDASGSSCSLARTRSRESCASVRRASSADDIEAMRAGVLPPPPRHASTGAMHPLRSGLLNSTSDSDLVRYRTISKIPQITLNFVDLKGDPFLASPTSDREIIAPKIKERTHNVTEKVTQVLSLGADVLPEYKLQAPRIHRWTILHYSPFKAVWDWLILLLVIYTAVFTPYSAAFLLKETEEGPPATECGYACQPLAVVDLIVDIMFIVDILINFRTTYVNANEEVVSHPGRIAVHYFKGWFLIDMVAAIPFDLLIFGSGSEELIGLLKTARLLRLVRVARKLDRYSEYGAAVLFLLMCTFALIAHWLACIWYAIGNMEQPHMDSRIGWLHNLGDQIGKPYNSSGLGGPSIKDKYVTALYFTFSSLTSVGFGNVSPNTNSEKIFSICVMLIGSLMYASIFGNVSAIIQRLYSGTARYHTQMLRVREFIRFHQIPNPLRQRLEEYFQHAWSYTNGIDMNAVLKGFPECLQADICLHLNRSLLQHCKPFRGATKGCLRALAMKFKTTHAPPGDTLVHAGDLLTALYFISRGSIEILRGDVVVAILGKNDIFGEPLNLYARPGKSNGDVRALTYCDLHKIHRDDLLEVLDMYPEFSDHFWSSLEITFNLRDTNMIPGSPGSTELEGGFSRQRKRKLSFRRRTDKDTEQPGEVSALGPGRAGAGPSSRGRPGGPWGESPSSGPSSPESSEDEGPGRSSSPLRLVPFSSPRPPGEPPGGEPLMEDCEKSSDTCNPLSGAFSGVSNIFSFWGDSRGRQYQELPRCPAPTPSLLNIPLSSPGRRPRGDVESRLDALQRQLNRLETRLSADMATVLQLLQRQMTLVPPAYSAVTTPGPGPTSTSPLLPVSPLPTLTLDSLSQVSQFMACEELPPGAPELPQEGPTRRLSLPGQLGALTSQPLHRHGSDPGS

Structure (SMILES) | Kd [1] [µM] | Binding at hDAT compared to PRC200-SS ([1]; in words) | Immobility in forced swim test vs saline ([2]; 5 mg/kg IP) | Swimming in forced swim test vs saline ([2]; 5 mg/kg IP) | Antidepressant activity in forced swim test compared with imipramine (15 mg/kg IP) ([2]; 5 mg/kg IP) | Kd [3] [µM] | Binding at hSERT compared to PRC200-SS [3] | Kd [4] [µM] | Potency (rank-order of potency of binding; S = hSERT, N = hNET, D = hDAT) [5] | Potency Range (difference between most potent and least potent binding) [5] [fold] | Immobility in forced swim test, 5 mg/kg IP vs 5 mg/kg PO of the same compound [2] | Immobility in forced swim test vs saline ([2]; 5 mg/kg IP, 5 mg/kg) | Swimming in forced swim test vs saline ([2]; 5 mg/kg IP, 5 mg/kg) | Climbing in forced swim test vs saline ([2]; 5 mg/kg PO) | Immobility in forced swim test vs saline ([2]; 5 mg/kg PO) | Swimming in forced swim test vs saline ([2]; 5 mg/kg PO) | IC50 [6] [µM] | Kd ([1]; Geometric Mean ± SEM, HCl salts, read-out: Equilibrium Dissociation Constant (KD) for Transporter Binding, hDAT (D)) [µM] | Potency (rank order, transport into rat brain synaptosomal preparations) [7] | IC50 [8] [µM]
CNC[C@H](c1ccc2ccccc2c1)[C@@H](Cl)c1ccccc1 [MCJ001-Cl-RS, (2S,3R)-3-chloro-N-methyl-2-(naphthalen-2-yl)-3-phenylpropan-1-amine] | 0.0079 ± 0.0004 | several fold more potent binding at hDAT | statistically (P<0.04) less immobility | statistically (P<0.04) more swimming behavior | antidepressant activity that was similar to that observed in rats treated with the positive control | 0.0011 ± 0.0001 | greater binding at hSERT | 0.0104 ± 0.0004 | S > D > N | 9.5 |  |  |  |  |  |  |  |  |  | 
CN1CO[C@H](c2ccccc2)[C@@H](c2ccc3ccccc3c2)C1 [MCJ001-OH-Cyc-SS, (5S,6S)-3-methyl-5-(naphthalen-2-yl)-6-phenyl-1,3-oxazinane] | 0.052 ± 0.005 |  |  |  | antidepressant activity that was similar to that observed in rats treated with the positive control | 0.0018 ± 0.0002 | greater binding at hSERT | 0.0027 ± 0.0003 | S > N > D | 29 | statistically (P≦0.04) less immobility than rats treated with MCJ001-OH-Cyc-SS (5 mg/kg PO) | statistically (P<0.04) less immobility; also recorded: statistically (P≦0.04) less immobility | statistically (P<0.04) more swimming behavior | statistically (P≦0.04) more climbing | statistically (P≦0.04) less immobility | statistically (P≦0.04) more swimming |  |  |  | 
CNC[C@@H](c1ccc2ccccc2c1)[C@H](N)c1ccccc1 [MCJ001-NH2-SR, (2R,3S)-N1-methyl-2-(naphthalen-2-yl)-3-phenylpropane-1,3-diamine] |  |  |  |  |  | 0.18 ± 0.01 |  | 0.166 ± 0.008 | N > S > D | 1.6 |  |  |  |  |  |  | 4.1 | 0.26 ± 0.02 |  | 
CN1Cc2c(N)cccc2C(c2ccccc2)C1 (centres unmarked) [Nomifensine, reference compound] |  |  |  |  |  |  |  |  | N > D > S |  |  |  |  |  |  |  |  |  | N > D > S | 
CNC[C@H](c1ccc2ccccc2c1)[C@H](Cl)c1ccccc1 [MCJ001-Cl-SS, (2S,3S)-3-chloro-N-methyl-2-(naphthalen-2-yl)-3-phenylpropan-1-amine] | 0.078 ± 0.005 |  | statistically (P<0.04) less immobility | statistically (P<0.04) more swimming behavior | antidepressant activity that was similar to that observed in rats treated with the positive control | 0.0011 ± 0.0001 | greater binding at hSERT | 0.0037 ± 0.0005 | S > N > D | 71 |  |  |  |  |  |  |  |  |  | 45.4

Source: US8440724B2, “Inhibiting neurotransmitter reuptake” (Mayo Foundation for Medical Education and Research, priority 2008, dated 2013)
